{"source": "patent US8252764B2", "about": "“Compositions and methods of use of targeting peptides against placenta and adipose tissues” (priority 2000, dated 2012)", "key": {"SK-RC-49/APA cells": {"system": "SK-RC-49/APA cells", "assay": "Phage binding specificity assay on SK-RC-49/APA cells", "assay_type": "cell-based", "details": "soluble peptide", "method": "The cell binding assay was performed with an input of 10^9 TU as described for the cell panning. The specificity was confirmed by adding […] (SEQ ID NO:56) peptide to the binding medium in increasing concentrations. For phage binding on immunocaptured APA, wells were blocked for 1 h at room temperature with PBS/3% BSA and incubated with 10^9 TU for 1 h at room temperature in 50 μl PBS/3% BSA. After eight washes in PBS/1% BSA/0.01% Tween-20 and two washes in PBS, phage were rescued by adding 200 μl of exponentially growing K91Kan E. coli. Each experiment was repeated at least three times."}, "[1]": {"system": "chicken chorioallantoic membrane (CAM)", "assay": "CAM assay for angiogenesis", "assay_type": "in vivo", "method": "In vivo angiogenesis was evaluated by a CAM assay (Ribatti et al., 1994). Fertilized eggs from White Leghorn chickens were maintained in constant humidity at 37° C. On the third day of incubation, a square window was opened in the eggshell and 2-3 ml of albumen was removed to detach the developing CAM from the shell. The window was sealed with a glass plate of the same size and the eggs were returned to the incubator. At day 8, 1 mm^3 sterilized gelatin sponges (Gelfoam, Upjohn Co, Kalamazoo, […]) were adsorbed with VEGF-A (20 ng, R&D System) and either […] (SEQ ID NO:56) or control […] (SEQ ID NO:57) peptide (1 mM) in 3 μl PBS and implanted on the top of the growing CAMs under sterile conditions. CAMs were examined daily until day 12 and photographed in ovo with a Leica stereomicroscope. Capillaries emerging from the sponge were counted. The assay was repeated twice."}, "aminopeptidase N": {"target": "aminopeptidase N (Homo sapiens, UniProt P15144)", "sequence (P15144 whole entry, species assumed)": "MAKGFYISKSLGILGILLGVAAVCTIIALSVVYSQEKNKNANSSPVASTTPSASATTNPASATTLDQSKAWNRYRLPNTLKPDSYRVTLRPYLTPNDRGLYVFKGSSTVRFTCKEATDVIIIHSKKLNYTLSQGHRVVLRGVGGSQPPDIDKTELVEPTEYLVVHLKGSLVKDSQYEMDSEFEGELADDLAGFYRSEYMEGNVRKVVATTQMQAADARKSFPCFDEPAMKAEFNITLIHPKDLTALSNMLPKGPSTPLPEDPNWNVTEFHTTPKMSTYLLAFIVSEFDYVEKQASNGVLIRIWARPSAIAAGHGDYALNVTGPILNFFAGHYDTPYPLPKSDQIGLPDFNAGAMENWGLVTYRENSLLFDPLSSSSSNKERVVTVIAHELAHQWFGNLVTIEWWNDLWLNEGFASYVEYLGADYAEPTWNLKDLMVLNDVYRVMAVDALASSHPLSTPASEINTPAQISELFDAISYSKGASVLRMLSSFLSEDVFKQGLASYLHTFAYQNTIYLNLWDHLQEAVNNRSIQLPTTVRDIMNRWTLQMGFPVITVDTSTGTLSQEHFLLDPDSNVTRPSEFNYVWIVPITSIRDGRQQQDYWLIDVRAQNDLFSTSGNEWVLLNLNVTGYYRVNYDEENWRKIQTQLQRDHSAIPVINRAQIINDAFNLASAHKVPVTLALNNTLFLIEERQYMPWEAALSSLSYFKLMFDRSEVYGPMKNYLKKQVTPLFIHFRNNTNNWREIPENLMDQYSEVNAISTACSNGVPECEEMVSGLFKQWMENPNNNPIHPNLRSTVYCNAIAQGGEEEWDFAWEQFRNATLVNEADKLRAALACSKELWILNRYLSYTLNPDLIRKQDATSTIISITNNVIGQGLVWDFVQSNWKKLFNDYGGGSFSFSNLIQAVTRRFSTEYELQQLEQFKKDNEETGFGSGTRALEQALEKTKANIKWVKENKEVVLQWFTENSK", "assay": "Aminopeptidase N activity", "assay_type": "biochemical", "details": "data not shown"}, "HUVECs [2]": {"system": "HUVECs", "assay": "HUVEC chemotaxis assay (Boyden chamber)", "assay_type": "cell-based, human", "details": "1 mM, VEGF-A (10 ng/ml), Boyden chamber", "method": "FIG. 33. […] (SEQ ID NO:56) inhibits HUVEC migration. HUVECs were stimulated with VEGF-A (10 ng/ml). The assay was performed in a Boyden microchemotaxis chamber, and cells were allowed to migrate through an 8-μm pore filter for 5 h at 37° C. […] (SEQ ID NO:57) (control) and […] (SEQ ID NO:56) peptides were tested at 1 mM concentration. Migrated cells were stained and five high-power fields (magnitude 100×) for each microwell were counted. Error bars are the standard error of the means of triplicate microwells.\nA cell migration assay was performed in a 48-well microchemotaxis chamber (NeuroProbe, Gaithersburg, Md.) according to Bussolini et al. (1995). Polyvinylpyrrolidone-free polycarbonate filters (Nucleopore, Cambridge, Mass.) with 8-μm pores were coated with 1% gelatin for 10 min at room temperature and equilibrated in M199 medium supplemented with 2% FCS. […] (SEQ ID NO:56) or control […] (SEQ ID NO:57) peptide (1 mM) was placed in the lower compartment of a Boyden chamber in M199 medium supplemented with 2% FCS and 10 ng/ml VEGF-A (R&D System). Subconfluent cultures that had been starved overnight were harvested in PBS containing 2.5 mM EDTA, washed once in PBS, and resuspended in M199 medium containing 2% FCS at a final concentration of 2×10^6 cells/ml. […] Five random high-power fields (magnitude 100×) were counted in each well. […]"}, "Aminopeptidase A (APA)": {"target": "T1, Aminopeptidase A (APA) (Homo sapiens, UniProt Q07075)", "T1 construct": "transfected with an expression vector encoding full-length APA cDNA; expressed in transfected cells; host or cells: SK-RC-49 renal carcinoma cells, stably transfected (SK-RC-49/APA)", "T1 sequence (Q07075 whole entry)": "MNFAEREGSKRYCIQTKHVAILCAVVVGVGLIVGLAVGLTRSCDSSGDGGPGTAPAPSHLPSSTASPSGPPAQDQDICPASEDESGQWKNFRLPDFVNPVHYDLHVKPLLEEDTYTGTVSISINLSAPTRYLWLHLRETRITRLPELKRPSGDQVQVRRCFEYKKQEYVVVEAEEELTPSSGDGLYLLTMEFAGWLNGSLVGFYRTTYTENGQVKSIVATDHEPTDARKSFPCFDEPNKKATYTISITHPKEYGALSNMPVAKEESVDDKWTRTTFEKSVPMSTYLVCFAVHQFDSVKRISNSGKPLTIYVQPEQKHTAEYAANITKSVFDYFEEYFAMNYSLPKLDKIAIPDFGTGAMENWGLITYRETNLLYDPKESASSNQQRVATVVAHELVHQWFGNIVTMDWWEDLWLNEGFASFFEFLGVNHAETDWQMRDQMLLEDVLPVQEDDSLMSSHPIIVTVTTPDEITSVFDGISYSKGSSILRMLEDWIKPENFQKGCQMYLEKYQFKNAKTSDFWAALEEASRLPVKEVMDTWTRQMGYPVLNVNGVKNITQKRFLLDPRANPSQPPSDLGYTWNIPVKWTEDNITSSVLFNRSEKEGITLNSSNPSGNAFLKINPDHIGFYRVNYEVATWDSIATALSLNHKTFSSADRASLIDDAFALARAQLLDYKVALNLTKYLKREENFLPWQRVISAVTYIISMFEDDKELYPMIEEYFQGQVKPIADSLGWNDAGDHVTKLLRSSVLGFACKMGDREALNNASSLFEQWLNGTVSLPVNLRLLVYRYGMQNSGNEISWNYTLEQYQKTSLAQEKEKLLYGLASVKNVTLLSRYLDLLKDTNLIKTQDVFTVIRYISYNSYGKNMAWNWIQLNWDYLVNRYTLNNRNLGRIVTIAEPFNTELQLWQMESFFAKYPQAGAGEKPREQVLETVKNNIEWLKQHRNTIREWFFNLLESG", "assay": "APA enzyme assay", "assay_type": "biochemical"}, "HUVECs [3]": {"system": "HUVECs", "assay": "HUVEC cell growth assay (crystal violet)", "assay_type": "cell-based, human", "details": "1 mM, VEGF-A (10 ng/ml)", "method": "FIG. 34. […] (SEQ ID NO:56) inhibits HUVEC proliferation. Cells were stimulated with VEGF-A (10 ng/ml), and growth was evaluated at the indicated times by a colorimetric assay based on crystal violet staining. Error bars are the standard error of the means of triplicate wells. Each experiment was repeated at least twice with similar results.\nHUVECs were seeded in 48-well plates (10^4 cells/well) and allowed to attach for 24 h in complete M199 medium. The cells were then starved in M199 medium containing 2% FCS for 24 h. […] (SEQ ID NO:56) or control […] (SEQ ID NO:57) peptide (1 mM) was added to the wells in medium containing 2% FCS and 10 ng/ml VEGF-A (R&D System, Abingdom, UK). After incubation for the indicated times, cells were fixed in 2.5% glutaraldehyde, stained with 0.1% crystal violet in 20% methanol, and solubilized in 10% acetic acid. All treatments were done in triplicate. Cell growth was evaluated by measuring the O.D. at 590 nm in a microplate reader (Bio-Rad Laboratories, Hercules, Calif.). A calibration curve was established and a linear correlation between O.D. and cell counts was observed between 10^3 and 10^5 cells."}, "HUVECs [4]": {"system": "HUVECs", "assay": "Three-dimensional cell culture on Matrigel", "assay_type": "cell-based, human", "details": "HUVECs on three-dimensional matrix gel, not shown", "method": "Matrigel (Collaborative Research, Bedford, Mass.) was added at 100 μl per well to 48-well tissue culture plates and allowed to solidify for 10 min at 37° C. HUVECs were starved for 24 h in M199 medium supplemented with 2% FCS before being harvested in PBS containing 2.5 mM EDTA. 10^4 cells were gently added to each of the triplicate wells and allowed to adhere to the gel coating for 30 min at 37° C. Then, medium was replaced with indicated concentrations of […] (SEQ ID NO:56) or […] (SEQ ID NO:57) peptides in complete medium. The plates were photographed after 24 h with an inverted microscope (Canon). The assay was repeated three times."}}, "note": "Peptide text beside a SMILES is read from it.", "data": [{"smiles": "CC[C@H](C)[C@H](NC(=O)[C@H](CO)NC(=O)[C@H](CCC(=O)O)NC(=O)[C@H](CS)NC(=O)[C@H](CCC(=O)O)NC(=O)[C@H](CCCNC(=N)N)NC(=O)[C@@H]1CCCN1C(=O)[C@@H](N)CS)C(=O)N[C@@H](CS)C(=O)O", "note": "(H-CPRECESIC-OH)", "values": [{"measurement": "effect on binding of CYNLCIRECESICGADGACWTWCADGCSRSC phage", "setting": "SK-RC-49/APA cells; data not shown", "value": "displaced"}, {"measurement": "competition with CPKVCPRECESNC phage for binding to SK-RC-49/APA cells", "setting": "SK-RC-49/APA cells; not shown", "value": "competed"}, {"measurement": "inhibition of neovascularization induced by VEGF-A", "setting": "[1]; 1 mM, number of capillaries emerging from the sponge", "value": 40, "unit": "%"}, {"measurement": "BLOOD VESSEL NUMBERS", "setting": "[1]; VEGF-A 20 ng, peptide 1 mM, mean and standard error, two experiments", "value": "5.5 ± 1.41"}, {"measurement": "effect on aminopeptidase N activity", "setting": "aminopeptidase N", "value": "did not affect the activity"}, {"measurement": "inhibition of chemotaxis of HUVECs", "setting": "HUVECs [2]", "value": 70, "unit": "%"}, {"measurement": "IC50", "setting": "Aminopeptidase A (APA); SK-RC-49/APA cells, α-glutamyl-p-nitroanilide, 2 h at 37° C., read-out: IC50 for APA enzyme inhibition", "value": 800, "unit": "µM"}, {"measurement": "reduction of APA enzyme activity", "setting": "Aminopeptidase A (APA); at the highest concentration tested", "value": 60, "unit": "%"}, {"measurement": "inhibition of cell proliferation", "setting": "HUVECs [3]", "value": 50, "unit": "%"}, {"measurement": "formation of capillary-like network", "setting": "HUVECs [4]", "value": "progressive impairment of the formation of this network"}]}]}
